# In patent US7202280B2, “Methods for the treatment and prevention of pancreatitis and for induction of liver regeneration” (priority 2002, dated 2007):
# System: syngenic and metallothionein-SSAT mice
# Test: Hepatic, pancreatic and renal polyamine concentration in syngenic and metallothionein-SSAT mice after analogue
# Format: in vivo, mouse
# Conditions: Tg (transgenic) mice, 24 h before sacrifice
# Protocol: α-methylspermidine, Bis-α-methylspermine and α-methylspermine were administered in saline. […] The data are expressed as means ±S.D. For statistical analysis, the two-tailed Student's t test was used.
compound,measurement,setting,value
"CC(N)CCNCCCCNCCC(C)N (stereo not drawn) [bis-α-methylspermine, 1,12-dimethylspermine]","hepatic polyamine concentration, N^1-Acetylspermidine",12.5 mg/kg,226.74 pmoles/mg tissue wet weight
same,"hepatic polyamine concentration, N^8-Acetylspermidine",12.5 mg/kg,9.43 pmoles/mg tissue wet weight
same,"hepatic polyamine concentration, Putrescine",12.5 mg/kg,944.38 pmoles/mg tissue wet weight
same,"hepatic polyamine concentration, Spermidine",12.5 mg/kg,792.81 pmoles/mg tissue wet weight
same,"hepatic polyamine concentration, Spermine",12.5 mg/kg,104.48 pmoles/mg tissue wet weight
same,"pancreatic polyamine concentration, N^1-Acetylspermidine",12.5 mg/kg,267.18 pmoles/mg tissue wet weight
same,"pancreatic polyamine concentration, Putrescine",12.5 mg/kg,6168.51 ± 1253.00 pmoles/mg tissue wet weight
same,"pancreatic polyamine concentration, Spermidine",12.5 mg/kg,3646.27 ± 367.99 pmoles/mg tissue wet weight
same,"pancreatic polyamine concentration, Spermine",12.5 mg/kg,187.07 ± 5.15 pmoles/mg tissue wet weight
same,"renal polyamine concentration, N^1-Acetylspermidine",12.5 mg/kg,19.74 pmoles/mg tissue wet weight
same,"renal polyamine concentration, N^8-Acetylspermidine",12.5 mg/kg,16.35 ± 1.03 pmoles/mg tissue wet weight
same,"renal polyamine concentration, Putrescine",12.5 mg/kg,184.32 pmoles/mg tissue wet weight
same,"renal polyamine concentration, Spermidine",12.5 mg/kg,235.80 pmoles/mg tissue wet weight
same,"renal polyamine concentration, Spermine",12.5 mg/kg,739.17 pmoles/mg tissue wet weight
same,"hepatic concentration, Bis-α-Methylspermine",25 mg/kg,105.83 pmoles/mg tissue wet weight
same,"hepatic polyamine concentration, N^1-Acetylspermidine",25 mg/kg,219.53 pmoles/mg tissue wet weight
same,"hepatic polyamine concentration, N^8-Acetylspermidine",25 mg/kg,9.03 pmoles/mg tissue wet weight
same,"hepatic polyamine concentration, Putrescine",25 mg/kg,895.27 pmoles/mg tissue wet weight
same,"hepatic polyamine concentration, Spermidine",25 mg/kg,673.04 pmoles/mg tissue wet weight
same,"hepatic polyamine concentration, Spermine",25 mg/kg,66.74 pmoles/mg tissue wet weight
same,"pancreatic concentration, Bis-α-Methylspermine",25 mg/kg,315.13 ± 82.18 pmoles/mg tissue wet weight
same,"pancreatic polyamine concentration, N^1-Acetylspermidine",25 mg/kg,474.31 pmoles/mg tissue wet weight
same,"pancreatic polyamine concentration, N^8-Acetylspermidine",25 mg/kg,64.06 pmoles/mg tissue wet weight
same,"pancreatic polyamine concentration, Putrescine",25 mg/kg,7573.46 ± 1084.90 pmoles/mg tissue wet weight
same,"pancreatic polyamine concentration, Spermidine",25 mg/kg,3389.87 ± 447.32 pmoles/mg tissue wet weight
same,"pancreatic polyamine concentration, Spermine",25 mg/kg,73.43 ± 6.82 pmoles/mg tissue wet weight
same,"renal concentration, Bis-α-Methylspermine",25 mg/kg,315.13 pmoles/mg tissue wet weight
same,"renal polyamine concentration, N^1-Acetylspermidine",25 mg/kg,25.57 pmoles/mg tissue wet weight
same,"renal polyamine concentration, N^8-Acetylspermidine",25 mg/kg,17.52 ± 3.88 pmoles/mg tissue wet weight
same,"renal polyamine concentration, Putrescine",25 mg/kg,137.26 pmoles/mg tissue wet weight
same,"renal polyamine concentration, Spermidine",25 mg/kg,216.59 pmoles/mg tissue wet weight
same,"renal polyamine concentration, Spermine",25 mg/kg,565.06 pmoles/mg tissue wet weight
same,"hepatic concentration, Bis-α-Methylspermine",37.5 mg/kg,158.82 pmoles/mg tissue wet weight
same,"hepatic polyamine concentration, N^1-Acetylspermidine",37.5 mg/kg,355.10 pmoles/mg tissue wet weight
same,"hepatic polyamine concentration, N^8-Acetylspermidine",37.5 mg/kg,19.03 pmoles/mg tissue wet weight
same,"hepatic polyamine concentration, Putrescine",37.5 mg/kg,1032.66 pmoles/mg tissue wet weight
same,"hepatic polyamine concentration, Spermidine",37.5 mg/kg,404.05 pmoles/mg tissue wet weight
same,"hepatic polyamine concentration, Spermine",37.5 mg/kg,74.10 pmoles/mg tissue wet weight
same,"pancreatic concentration, Bis-α-Methylspermine",37.5 mg/kg,421.62 ± 147.44 pmoles/mg tissue wet weight
same,"pancreatic polyamine concentration, N^1-Acetylspermidine",37.5 mg/kg,339.96 pmoles/mg tissue wet weight
same,"pancreatic polyamine concentration, N^8-Acetylspermidine",37.5 mg/kg,90.85 pmoles/mg tissue wet weight
same,"pancreatic polyamine concentration, Putrescine",37.5 mg/kg,8158.57 ± 2876.94 pmoles/mg tissue wet weight
same,"pancreatic polyamine concentration, Spermidine",37.5 mg/kg,2268.60 ± 1821.72 pmoles/mg tissue wet weight
same,"pancreatic polyamine concentration, Spermine",37.5 mg/kg,98.77 ± 82.83 pmoles/mg tissue wet weight
same,"renal concentration, Bis-α-Methylspermine",37.5 mg/kg,421.62 pmoles/mg tissue wet weight
same,"renal polyamine concentration, N^1-Acetylspermidine",37.5 mg/kg,27.37 pmoles/mg tissue wet weight
same,"renal polyamine concentration, N^8-Acetylspermidine",37.5 mg/kg,16.82 ± 4.23 pmoles/mg tissue wet weight
same,"renal polyamine concentration, Putrescine",37.5 mg/kg,225.66 pmoles/mg tissue wet weight
same,"renal polyamine concentration, Spermidine",37.5 mg/kg,185.57 pmoles/mg tissue wet weight
same,"renal polyamine concentration, Spermine",37.5 mg/kg,426.59 pmoles/mg tissue wet weight
same,"hepatic concentration, Bis-α-Methylspermine",50 mg/kg,300.81 pmoles/mg tissue wet weight
same,"hepatic polyamine concentration, N^1-Acetylspermidine",50 mg/kg,207.30 pmoles/mg tissue wet weight
same,"hepatic polyamine concentration, N^8-Acetylspermidine",50 mg/kg,19.27 pmoles/mg tissue wet weight
same,"hepatic polyamine concentration, Putrescine",50 mg/kg,717.95 pmoles/mg tissue wet weight
same,"hepatic polyamine concentration, Spermidine",50 mg/kg,293.21 pmoles/mg tissue wet weight
same,"hepatic polyamine concentration, Spermine",50 mg/kg,69.63 pmoles/mg tissue wet weight
same,"pancreatic concentration, Bis-α-Methylspermine",50 mg/kg,400.64 ± 63.85 pmoles/mg tissue wet weight
same,"pancreatic polyamine concentration, N^1-Acetylspermidine",50 mg/kg,288.51 pmoles/mg tissue wet weight
same,"pancreatic polyamine concentration, Putrescine",50 mg/kg,5123.85 ± 573.32 pmoles/mg tissue wet weight
same,"pancreatic polyamine concentration, Spermidine",50 mg/kg,2326.21 ± 126.42 pmoles/mg tissue wet weight
same,"pancreatic polyamine concentration, Spermine",50 mg/kg,119.48 ± 37.92 pmoles/mg tissue wet weight
same,"renal concentration, Bis-α-Methylspermine",50 mg/kg,400.64 pmoles/mg tissue wet weight
same,"renal polyamine concentration, N^8-Acetylspermidine",50 mg/kg,12.21 ± 4.20 pmoles/mg tissue wet weight
same,"renal polyamine concentration, Putrescine",50 mg/kg,173.97 pmoles/mg tissue wet weight
same,"renal polyamine concentration, Spermidine",50 mg/kg,204.20 pmoles/mg tissue wet weight
same,"renal polyamine concentration, Spermine",50 mg/kg,481.68 pmoles/mg tissue wet weight
